ChEMBL document CHEMBL3779870, “Differential metabolism of 3FDT and docetaxel in RLMs, rats, and HLMs” (Eur J Med Chem, 2016)

Legend:
[1] = Cytotoxicity against human SKOV3 cells; format: functional, cell-based; details: SK-OV-3
[2] = Drug metabolism in Sprague-Dawley rat feces assessed as metabolite M2 formation at 40 mg/kg, iv administered as single dose after 24 hrs by HPLC-TIC chromatography; format: ADME, organism-based; details: in vivo
[3] = system: Plasma; test: Drug metabolism in Sprague-Dawley rat plasma assessed as 7-epi-3FDT formation at 40 mg/kg, iv administered as single dose after 4 to 24 hrs by HPLC-TIC chromatography; format: ADME, organism-based; details: in vivo
[4] = AUC (0 to infinity) in Sprague-Dawley rat; format: ADME, organism-based; design: time infinity; details: in vivo
[5] = Apparent volume of distribution in Sprague-Dawley rat; format: ADME, organism-based; details: in vivo, read-out: Vd(app)
[6] = Total clearance in Sprague-Dawley rat plasma; format: ADME, organism-based
[7] = molecular target: T1, Cytochrome P450 1A2 (Homo sapiens, UniProt P05177); test: Drug metabolism assessed as recombinant human CYP1A2 mediated metabolite formation at 10 uM preincubated for 5 mins followed by addition of NADPH measured after 120 mins by HPLC-TIC chromatography; format: ADME; details: recombinant enzyme, 2 h
T1 sequence (P05177 whole entry): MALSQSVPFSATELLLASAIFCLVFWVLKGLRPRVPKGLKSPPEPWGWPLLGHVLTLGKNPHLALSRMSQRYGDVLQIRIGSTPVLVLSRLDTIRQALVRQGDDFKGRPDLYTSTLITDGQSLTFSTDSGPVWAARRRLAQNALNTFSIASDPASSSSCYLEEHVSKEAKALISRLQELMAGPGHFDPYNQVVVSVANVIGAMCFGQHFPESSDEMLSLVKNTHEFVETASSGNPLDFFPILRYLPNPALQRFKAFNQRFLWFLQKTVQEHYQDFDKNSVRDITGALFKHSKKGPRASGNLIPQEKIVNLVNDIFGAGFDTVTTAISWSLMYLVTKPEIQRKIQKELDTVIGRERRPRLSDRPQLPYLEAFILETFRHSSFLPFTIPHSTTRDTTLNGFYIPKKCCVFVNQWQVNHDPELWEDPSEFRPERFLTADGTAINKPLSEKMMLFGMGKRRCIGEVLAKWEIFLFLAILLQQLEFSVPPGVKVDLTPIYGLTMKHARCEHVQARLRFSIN

[8] = Drug metabolism in Sprague-Dawley rat feces assessed as metabolite M8 formation at 40 mg/kg, iv administered as single dose after 24 hrs by HPLC-TIC chromatography; format: ADME, organism-based; details: in vivo
[9] = molecular target: Cytochrome P450 2D6 (Homo sapiens, UniProt P10635); test: Drug metabolism assessed as recombinant human CYP2D6 mediated metabolite formation at 10 uM preincubated for 5 mins followed by addition of NADPH measured after 120 mins by HPLC-TIC chromatography; format: ADME; details: recombinant enzyme, 2 h
Sequence of Cytochrome P450 2D6 (P10635 whole entry): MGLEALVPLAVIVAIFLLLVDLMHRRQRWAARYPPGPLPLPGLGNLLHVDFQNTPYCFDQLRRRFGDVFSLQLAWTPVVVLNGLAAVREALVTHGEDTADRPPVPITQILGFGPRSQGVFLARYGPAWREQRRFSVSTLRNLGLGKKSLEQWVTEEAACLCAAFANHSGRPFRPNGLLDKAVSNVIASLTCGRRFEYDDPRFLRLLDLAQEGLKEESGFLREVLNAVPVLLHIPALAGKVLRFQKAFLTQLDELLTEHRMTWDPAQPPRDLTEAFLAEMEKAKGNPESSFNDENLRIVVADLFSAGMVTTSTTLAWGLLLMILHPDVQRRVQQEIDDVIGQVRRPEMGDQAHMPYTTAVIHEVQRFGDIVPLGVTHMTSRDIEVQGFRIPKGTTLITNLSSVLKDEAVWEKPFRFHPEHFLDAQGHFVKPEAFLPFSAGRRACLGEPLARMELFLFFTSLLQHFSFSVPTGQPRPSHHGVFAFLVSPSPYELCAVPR

[10] = system: Plasma; test: Drug metabolism in Sprague-Dawley rat plasma assessed as metabolite M1 formation at 40 mg/kg, iv administered as single dose after 4 to 24 hrs by HPLC-TIC chromatography; format: ADME, organism-based; details: in vivo
[11] = Drug metabolism in Sprague-Dawley rat urine assessed as metabolite M1 formation at 40 mg/kg, iv administered as single dose after 24 hrs by HPLC-TIC chromatography; format: ADME, organism-based; details: in vivo
[12] = system: Plasma; test: Drug metabolism in Sprague-Dawley rat plasma assessed as metabolite M2 formation at 40 mg/kg, iv administered as single dose after 4 to 24 hrs by HPLC-TIC chromatography; format: ADME, organism-based; details: in vivo
[13] = Drug metabolism in Sprague-Dawley rat urine assessed as metabolite M4 formation at 40 mg/kg, iv administered as single dose after 24 hrs by HPLC-TIC chromatography; format: ADME, organism-based; details: in vivo
[14] = molecular target: T2, Cytochrome P450 3A4 (Homo sapiens, UniProt P08684); test: Drug metabolism assessed as recombinant human CYP3A4 mediated metabolite M1 formation at 10 uM preincubated for 5 mins followed by addition of NADPH measured after 120 mins by HPLC-TIC chromatography; format: ADME; details: recombinant enzyme, 2 h
T2 sequence (P08684 whole entry): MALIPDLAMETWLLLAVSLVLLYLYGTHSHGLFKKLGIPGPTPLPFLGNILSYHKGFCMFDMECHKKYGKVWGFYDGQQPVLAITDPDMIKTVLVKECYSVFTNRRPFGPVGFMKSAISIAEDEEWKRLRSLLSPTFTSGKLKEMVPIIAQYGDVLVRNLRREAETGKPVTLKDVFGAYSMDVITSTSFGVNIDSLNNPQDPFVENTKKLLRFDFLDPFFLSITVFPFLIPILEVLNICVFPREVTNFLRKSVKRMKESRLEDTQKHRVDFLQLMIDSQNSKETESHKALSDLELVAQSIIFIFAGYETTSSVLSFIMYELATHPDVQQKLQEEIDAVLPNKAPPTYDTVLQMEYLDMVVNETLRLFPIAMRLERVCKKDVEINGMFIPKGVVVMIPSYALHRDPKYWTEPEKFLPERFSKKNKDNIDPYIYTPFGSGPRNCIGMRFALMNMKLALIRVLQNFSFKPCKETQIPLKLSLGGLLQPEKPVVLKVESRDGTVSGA

[15] = molecular target: Cytochrome P450 2E1 (Homo sapiens, UniProt P05181); test: Drug metabolism assessed as recombinant human CYP2E1 mediated metabolite M4 formation at 10 uM preincubated for 5 mins followed by addition of NADPH measured after 120 mins by HPLC-TIC chromatography; format: ADME; details: recombinant enzyme, 2 h
Sequence of Cytochrome P450 2E1 (P05181 whole entry): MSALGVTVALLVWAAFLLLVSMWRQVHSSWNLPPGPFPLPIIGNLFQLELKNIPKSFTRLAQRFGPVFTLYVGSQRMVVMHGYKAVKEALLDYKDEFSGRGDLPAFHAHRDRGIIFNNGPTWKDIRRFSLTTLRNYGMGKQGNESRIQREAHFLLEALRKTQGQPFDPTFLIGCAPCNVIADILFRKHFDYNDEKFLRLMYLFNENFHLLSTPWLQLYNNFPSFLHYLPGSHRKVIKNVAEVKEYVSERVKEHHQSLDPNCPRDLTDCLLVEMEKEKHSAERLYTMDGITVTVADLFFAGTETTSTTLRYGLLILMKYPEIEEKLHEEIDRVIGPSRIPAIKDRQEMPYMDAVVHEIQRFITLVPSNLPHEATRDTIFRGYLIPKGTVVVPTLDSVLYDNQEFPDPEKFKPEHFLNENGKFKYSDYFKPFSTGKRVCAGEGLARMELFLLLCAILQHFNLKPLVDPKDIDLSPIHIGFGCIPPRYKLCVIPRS

[16] = molecular target: T3, Cytochrome P450 2B6 (Homo sapiens, UniProt P20813); test: Drug metabolism assessed as recombinant human CYP2B6 mediated metabolite formation at 10 uM preincubated for 5 mins followed by addition of NADPH measured after 120 mins by HPLC-TIC chromatography; format: ADME; details: recombinant enzyme, 2 h
T3 sequence (P20813 whole entry): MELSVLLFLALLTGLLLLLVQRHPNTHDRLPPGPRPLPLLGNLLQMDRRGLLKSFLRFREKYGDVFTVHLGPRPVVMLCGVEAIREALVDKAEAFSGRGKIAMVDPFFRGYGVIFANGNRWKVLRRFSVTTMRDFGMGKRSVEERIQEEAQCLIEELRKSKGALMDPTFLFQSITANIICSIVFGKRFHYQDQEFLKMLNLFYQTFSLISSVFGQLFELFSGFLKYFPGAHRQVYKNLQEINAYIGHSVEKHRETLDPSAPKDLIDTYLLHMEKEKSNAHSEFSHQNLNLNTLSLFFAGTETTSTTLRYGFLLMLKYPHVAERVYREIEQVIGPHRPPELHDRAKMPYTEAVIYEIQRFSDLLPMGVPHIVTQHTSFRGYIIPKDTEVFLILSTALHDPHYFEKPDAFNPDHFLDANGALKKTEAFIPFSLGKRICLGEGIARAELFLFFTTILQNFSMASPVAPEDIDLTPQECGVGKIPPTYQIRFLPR

[17] = molecular target: T4, Cytochrome P450 2C8 (Homo sapiens, UniProt P10632); test: Drug metabolism assessed as recombinant human CYP2C8 mediated metabolite formation at 10 uM preincubated for 5 mins followed by addition of NADPH measured after 120 mins by HPLC-TIC chromatography; format: ADME; details: recombinant enzyme, 2 h
T4 sequence (P10632 whole entry): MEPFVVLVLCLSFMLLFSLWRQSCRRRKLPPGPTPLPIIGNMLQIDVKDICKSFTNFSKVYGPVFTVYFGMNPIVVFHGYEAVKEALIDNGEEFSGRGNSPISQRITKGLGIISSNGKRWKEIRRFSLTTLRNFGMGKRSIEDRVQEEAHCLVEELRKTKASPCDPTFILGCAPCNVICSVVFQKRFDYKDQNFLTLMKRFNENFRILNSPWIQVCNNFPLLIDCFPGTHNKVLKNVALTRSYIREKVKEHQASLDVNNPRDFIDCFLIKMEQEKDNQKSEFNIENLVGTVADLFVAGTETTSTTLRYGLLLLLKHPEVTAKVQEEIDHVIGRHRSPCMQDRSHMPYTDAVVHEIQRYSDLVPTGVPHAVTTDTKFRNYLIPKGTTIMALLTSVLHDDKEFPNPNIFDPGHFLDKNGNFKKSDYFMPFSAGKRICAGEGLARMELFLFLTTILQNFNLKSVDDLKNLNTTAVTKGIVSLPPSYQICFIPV

[18] = molecular target: T2, Cytochrome P450 3A4; test: Drug metabolism assessed as recombinant human CYP3A4 mediated metabolite M2 formation at 10 uM preincubated for 5 mins followed by addition of NADPH measured after 120 mins by HPLC-TIC chromatography; format: ADME; details: recombinant enzyme, 2 h
[19] = Drug metabolism in Sprague-Dawley rat feces assessed as metabolite M3 formation at 40 mg/kg, iv administered as single dose after 24 hrs by HPLC-TIC chromatography; format: ADME, organism-based; details: in vivo
[20] = molecular target: T2, Cytochrome P450 3A4; test: Drug metabolism assessed as recombinant human CYP3A4 mediated metabolite M3 formation at 10 uM preincubated for 5 mins followed by addition of NADPH measured after 120 mins by HPLC-TIC chromatography; format: ADME; details: recombinant enzyme, 2 h
[21] = molecular target: T5, Cytochrome P450 3A5 (Homo sapiens, UniProt P20815); test: Drug metabolism assessed as recombinant human CYP3A5 mediated metabolite M2 formation at 10 uM preincubated for 5 mins followed by addition of NADPH measured after 120 mins by HPLC-TIC chromatography; format: ADME; details: recombinant enzyme, 2 h
T5 sequence (P20815 whole entry): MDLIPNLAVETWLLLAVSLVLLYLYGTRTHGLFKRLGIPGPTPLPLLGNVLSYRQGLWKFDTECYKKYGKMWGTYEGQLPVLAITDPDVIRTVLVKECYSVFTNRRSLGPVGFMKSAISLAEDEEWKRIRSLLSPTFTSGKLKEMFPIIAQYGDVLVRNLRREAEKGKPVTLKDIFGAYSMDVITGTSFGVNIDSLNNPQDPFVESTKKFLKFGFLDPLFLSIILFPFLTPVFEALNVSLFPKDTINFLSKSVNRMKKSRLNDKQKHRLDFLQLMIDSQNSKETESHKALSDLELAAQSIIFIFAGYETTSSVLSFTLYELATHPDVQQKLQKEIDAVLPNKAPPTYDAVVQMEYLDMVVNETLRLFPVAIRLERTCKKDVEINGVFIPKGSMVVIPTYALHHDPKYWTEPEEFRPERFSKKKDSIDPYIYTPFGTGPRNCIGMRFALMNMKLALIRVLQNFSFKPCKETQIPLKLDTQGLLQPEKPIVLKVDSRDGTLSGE

[22] = AUC (0 to t) in Sprague-Dawley rat; format: ADME, organism-based; details: in vivo
[23] = Drug metabolism in Sprague-Dawley rat feces assessed as metabolite M4 formation at 40 mg/kg, iv administered as single dose after 24 hrs by HPLC-TIC chromatography; format: ADME, organism-based; details: in vivo
[24] = molecular target: T5, Cytochrome P450 3A5; test: Drug metabolism assessed as recombinant human CYP3A5 mediated metabolite M1 formation at 10 uM preincubated for 5 mins followed by addition of NADPH measured after 120 mins by HPLC-TIC chromatography; format: ADME; details: recombinant enzyme, 2 h
[25] = molecular target: T6, Cytochrome P450 2A6 (Homo sapiens, UniProt P11509); test: Drug metabolism assessed as recombinant human CYP2A6 mediated metabolite formation at 10 uM preincubated for 5 mins followed by addition of NADPH measured after 120 mins by HPLC-TIC chromatography; format: ADME; details: recombinant enzyme, 2 h
T6 sequence (P11509 whole entry): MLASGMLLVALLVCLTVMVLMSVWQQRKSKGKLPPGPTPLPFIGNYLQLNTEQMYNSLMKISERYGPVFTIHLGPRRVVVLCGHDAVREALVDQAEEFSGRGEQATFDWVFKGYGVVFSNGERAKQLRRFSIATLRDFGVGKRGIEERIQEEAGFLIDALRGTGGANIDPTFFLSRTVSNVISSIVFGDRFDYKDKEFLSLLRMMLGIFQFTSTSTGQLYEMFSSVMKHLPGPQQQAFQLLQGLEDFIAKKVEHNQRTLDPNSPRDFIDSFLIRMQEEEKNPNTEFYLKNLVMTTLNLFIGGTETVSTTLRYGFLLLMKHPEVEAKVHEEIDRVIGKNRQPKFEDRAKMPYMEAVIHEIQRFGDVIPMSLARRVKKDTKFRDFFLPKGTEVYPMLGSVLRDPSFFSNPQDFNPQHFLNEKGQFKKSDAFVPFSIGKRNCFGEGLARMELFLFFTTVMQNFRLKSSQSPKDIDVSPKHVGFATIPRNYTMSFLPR

[26] = Drug metabolism in Sprague-Dawley rat feces assessed as metabolite M6 formation at 40 mg/kg, iv administered as single dose after 24 hrs by HPLC-TIC chromatography; format: ADME, organism-based; details: in vivo
[27] = Drug metabolism in Sprague-Dawley rat feces assessed as 7-epi-3FDT formation at 40 mg/kg, iv administered as single dose after 24 hrs by HPLC-TIC chromatography; format: ADME, organism-based; details: in vivo
[28] = Drug metabolism in Sprague-Dawley rat urine assessed as 7-epi-3FDT formation at 40 mg/kg, iv administered as single dose after 24 hrs by HPLC-TIC chromatography; format: ADME, organism-based; details: in vivo
[29] = Drug metabolism in Sprague-Dawley rat urine assessed as metabolite M3 formation at 40 mg/kg, iv administered as single dose after 24 hrs by HPLC-TIC chromatography; format: ADME, organism-based; details: in vivo
[30] = molecular target: Cytochrome P450 2C19 (Homo sapiens, UniProt P33261); test: Drug metabolism assessed as recombinant human CYP2C19 mediated metabolite formation at 10 uM preincubated for 5 mins followed by addition of NADPH measured after 120 mins by HPLC-TIC chromatography; format: ADME; details: recombinant enzyme, 2 h
Sequence of Cytochrome P450 2C19 (P33261 whole entry): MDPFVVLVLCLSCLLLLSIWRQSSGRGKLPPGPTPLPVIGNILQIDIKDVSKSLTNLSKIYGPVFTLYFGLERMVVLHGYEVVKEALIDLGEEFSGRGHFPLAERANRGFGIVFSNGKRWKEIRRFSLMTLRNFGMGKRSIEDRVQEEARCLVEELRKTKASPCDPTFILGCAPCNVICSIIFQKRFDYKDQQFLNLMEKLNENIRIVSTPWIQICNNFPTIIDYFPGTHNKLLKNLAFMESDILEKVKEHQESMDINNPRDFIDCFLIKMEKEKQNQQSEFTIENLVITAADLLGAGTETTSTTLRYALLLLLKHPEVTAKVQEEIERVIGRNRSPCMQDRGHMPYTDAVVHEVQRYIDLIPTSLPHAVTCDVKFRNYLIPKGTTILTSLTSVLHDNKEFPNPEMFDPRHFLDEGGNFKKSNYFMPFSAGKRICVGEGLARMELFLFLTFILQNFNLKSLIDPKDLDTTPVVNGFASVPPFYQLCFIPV

[31] = system: Plasma; test: Drug metabolism in Sprague-Dawley rat plasma assessed as metabolite M3 formation at 40 mg/kg, iv administered as single dose after 4 to 24 hrs by HPLC-TIC chromatography; format: ADME, organism-based; details: in vivo
[32] = molecular target: Cytochrome P450 2C9 (Homo sapiens, UniProt P11712); test: Drug metabolism assessed as recombinant human CYP2C9 mediated metabolite formation at 10 uM preincubated for 5 mins followed by addition of NADPH measured after 120 mins by HPLC-TIC chromatography; format: ADME; details: recombinant enzyme, 2 h
Sequence of Cytochrome P450 2C9 (P11712 whole entry): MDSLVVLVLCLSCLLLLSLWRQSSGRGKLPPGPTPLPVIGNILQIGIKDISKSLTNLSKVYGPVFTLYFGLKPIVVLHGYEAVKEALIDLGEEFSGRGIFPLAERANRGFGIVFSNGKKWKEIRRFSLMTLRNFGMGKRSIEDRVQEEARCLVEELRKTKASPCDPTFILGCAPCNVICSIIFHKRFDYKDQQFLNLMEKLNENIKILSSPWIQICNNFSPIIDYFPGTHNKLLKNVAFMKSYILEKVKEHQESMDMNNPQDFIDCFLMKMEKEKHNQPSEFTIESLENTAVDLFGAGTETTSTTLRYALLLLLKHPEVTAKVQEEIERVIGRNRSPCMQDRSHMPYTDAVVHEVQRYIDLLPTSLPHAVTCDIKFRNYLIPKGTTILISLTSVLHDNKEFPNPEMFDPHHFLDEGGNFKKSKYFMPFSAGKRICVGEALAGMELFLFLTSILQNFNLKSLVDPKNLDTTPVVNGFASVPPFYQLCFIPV

[33] = system: Plasma; test: Drug metabolism in Sprague-Dawley rat plasma assessed as metabolite M4 formation at 40 mg/kg, iv administered as single dose after 4 to 24 hrs by HPLC-TIC chromatography; format: ADME, organism-based; details: in vivo
[34] = Drug metabolism in Sprague-Dawley rat feces assessed as metabolite M7 formation at 40 mg/kg, iv administered as single dose after 24 hrs by HPLC-TIC chromatography; format: ADME, organism-based; details: in vivo
[35] = Drug metabolism in Sprague-Dawley rat urine assessed as metabolite M2 formation at 40 mg/kg, iv administered as single dose after 24 hrs by HPLC-TIC chromatography; format: ADME, organism-based; details: in vivo

CC(=O)O[C@@]12CO[C@@H]1C[C@H](O)[C@@]1(C)C(=O)[C@H](O)C3=C(C)[C@@H](OC(=O)[C@H](O)[C@@H](NC(=O)OC(C)(C)C(F)(F)F)c4ccccc4)C[C@@](O)([C@@H](OC(=O)c4ccccc4)C12)C3(C)C (stereo not given in full)
metabolite_notdetected: Drug metabolism [7] | Drug metabolism [9] | Drug metabolism [10] | Drug metabolism [11] | Drug metabolism [12] | Drug metabolism [16] | Drug metabolism [17] | Drug metabolism [25] | Drug metabolism [29] | Drug metabolism [30] | Drug metabolism [31] | Drug metabolism [32] | Drug metabolism [35]
18.1 L/kg: Vd [5]
21 mL/min/kg: clearance [6]
3860 ng·h/mL: AUC(0-t) [22]
3960 ng·h/mL: AUC(0-inf) [4]
metabolite_detected: Drug metabolism [2] | Drug metabolism [3] | Drug metabolism [8] | Drug metabolism [13] | Drug metabolism [14] | Drug metabolism [15] | Drug metabolism [18] | Drug metabolism [19] | Drug metabolism [20] | Drug metabolism [21] | Drug metabolism [23] | Drug metabolism [24] | Drug metabolism [26] | Drug metabolism [27] | Drug metabolism [28] | Drug metabolism [33] | Drug metabolism [34]
0.01 nM: IC50 [1]
